Test results as given in patent publication US20030187261A1, “Purine derivatives, process for their preparation and use thereof” (priority 2000, published 2003).
Where two headings read alike, the source gives them in different places.

How the values were obtained:
MPF activity = assay: M-phase promoting factor inhibition in metaphase-arrested Xenopus egg extracts; type: biochemical; settings: 1.5 h after addition
Method: (§1) Metaphase-arrested Xenopus egg extracts were prepared as described previously by Blow “J. Cell Biol.” 1993, 122:993 and stored in liquid nitrogen. Demembranated Xenopus sperm nuclei were prepared as described by Blow & Laskey “Cell” 1986;47:577.
(§2) At concentrations of cdk inhibitors (see Table 6) ranging from 0.1-2 μM, chromosomes remained highly condensed and no nuclear envelope was visible. At 4-6 μM and higher concentrations, interphase nuclei appeared with partially decondensed chromatin and an intact nuclear envelope. […] For the inhibition effect to become detectable, the first 15-min incubation of the interphase extract is probably sufficient.

DNA synthesis = DNA synthesis in Xenopus egg extracts ([α-32P]dATP incorporation); type: biochemical; settings: [α-32P]dATP incorporation after 3 h; read-out: Inhibition of DNA synthesis IC50
Method: as §1, §2

KG1 = assay: clonogenic output of KG1 in methylcellulose; type: cell-based, human; settings: 25 μM, 14 days
Method: (§3) Cell lines: Human leukemic cell lines were obtained from the American Type Culture Collection (ATCC, Rockville, Md., USA). They were cultured in Iscove's Modified Dulbecco's Medium (IMDM) supplemented with 10% heat inactivated fetal calf serum (FCS), 200 U/ml penicillin, 200 μg/ml streptomycin and 1 μg/ml amphotericin B. Cells were cultured in a 5% CO2-95% air fully humidified incubator. For effects on clonogenic output, 1000 cells/well were plated in duplicate in methylcellulose (0.9%), supplemented with 20% FCS and cultured for 14 days.
Clonogenic output of KG1 was tested in methylcellulose with 25 μM of some of the novel compounds.

[1] = system: PHA-stimulated lymphocytes (PBMC); assay: cell number of PHA-stimulated lymphocytes (PBMC), flow cytometry; type: cell-based, human; settings: 96 hours, in the presence of IL-2
Method: Human peripheral blood mononuclear cells were isolated by density gradient (Ficoll-Hypaque) (LSM, ICN Biomedicals Inc.). PBMC were stimulated with 5 μg/ml phytohemaglutinin A (PHA) (Sigma) during 24-48 hours in IMDM supplemented with 10% FCS (IMDM/10% FCS) at 37° C. After washing off the PHA, PBMC were incubated with interleukin-2 (IL-2) (10 U/ml) (Genzyme).
(§4) Cells were plated at 10000 per well in 200 μl IMDM medium and incubated with 0-50 μM of the compounds of the invention (Table 5), by addition of the drugs directly to the culture medium and incubated at 37° C. for 96 hours. Absolute cell number was determined by addition of a known concentration of Fluoresbrite microspheres (FITC) (Polysciences, Inc.). The absolute number of cells per well was calculated as: {(total number of beads added per well)/(number of beads measured)}×(number of measured cells in the gate of interest). All analyses were performed with a FACScan (BD), using CELLQuest software (Becton Dickinson).
The novel compounds were tested for cytotoxicity on PHA-stimulated lymphocytes (PBMC), as one of the normal counterparts of the cell lines. Cells were grown for 96 hours in the presence of IL-2 and different concentrations of the novel compounds and cell number was counted on the flow cytometer.

[2] = system: T-lymphocyte leukemia Molt3 cell line; assay: cell growth of Molt3 cell line, flow cytometric cell count; type: cell-based, human; settings: 96 hours of culture
Method: as §3, §4
The response of the myeloid leukemia KG1 and T-lymphocyte leukemia Molt3 cell lines to the cytostatic effect of the novel compounds was determined using the above-mentioned standardized bead suspension that was used to determine the absolute cell number by flow cytometric (FCM) measurement. Cells were grown in the presence of increasing concentrations of the compounds of the invention.

[3] = system: myeloid leukemia KG1 cell line; assay: cell growth of KG1 cell line, flow cytometric cell count; settings: for IC50: read-out: KGI IC50
[4] = system: adult bone marrow CD34+CD38- cells; assay: pre-CFU assay; type: cell-based, human; settings: for IC50: 14 day liquid culture, total clonogenic output after secondary methylcellulose culture
Source text: […]. Cells with low-to-medium forward and low side scatter, highly positive green (CD34) fluorescence, and an orange (CD38) fluorescence signal lower than the mean fluorescence of cells labeled with an irrelevant isotype-matched control antibody+2 standard deviations were retained as CD34^+CD38^− cells and used in pre-CFU assays.
Pre-CFU assays were initiated by performing liquid cultures of CD34^+CD38^− cells in duplicate in 96-well flat-bottomed plates in IMDM/10% FCS, 1% bovine serum albumin (BSA), 100 U/ml IL-1, 200 U/ml IL-6, 30 U/ml IL-3 and 100 ng/ml stem cell factor (SCF). Pre-CFU cultures were initiated with 500 CD34^+CD38^− cells/well (200 μl). After 14 days of culture at 37° C. in 7.5% O2 and 5% CO2 in a fully humidified incubator, the number of cells in each well was counted. Subsequently, the cells were harvested, washed three times in IMDM/10% FCS, and plated in duplicate at 500 cells/well (1000 μl) in secondary methylcellulose CFU cultures as described for CFU assays.
Pre-CFU were cultured starting from adult bone marrow CD34^+CD38^− cells, that had been isolated using the FCM cell sorter. Novel compounds were added at different concentrations to the primary 14 day liquid culture. IC50 was calculated from dose-response curves from total clonogenic output after secondary methylcellulose culture (Table 5).

KG1 cells = assay: apoptosis and cell cycle in KG1 cells (fluorescence microscopy, TUNEL); type: cell-based, human
Method: Nuclear morphology of the cells was analysed with the fluorochromes Hoechst 33342 (λEx max 346 nm; λEm max 460 nm) (Sigma) prepared in phosphate-buffered saline (PBS at 0.1 mg/ml, added to the culture medium at a final concentration of 2 μg/ml and ethidium bromide (EB) (λEx max 540 nm; λEm max 625 nm) (Sigma) prepared in PBS at 100 μg/ml and added to the culture medium at a final concentration of 2 μg/ml (Lizard, 1995). Hundred cells were counted for each sample and percentage of apoptosis was determined.
Control and novel compound-treated cell cultures were washed with PBS and fixed in […] (pH 7.4) for 15 minutes on ice. After washing in PBS, cells were permeabilized in 70% cold (−20° C.) ethanol and transferred to 4° C. for at least 1 hour. After rehydratation in PBS, cells were labeled with 50 μl/well TUNEL reaction mixture (Boehringer Mannheim). Cells were incubated in this solution at 37° C. for 40 minutes, washed in PBS and resuspended in 500 μl PBS containing 5 μg/ml EB and 0.1% RNAse. After 30 minutes of incubation at 4° C., green (FITC-dUTP) and red (EB-DNA) fluorescence of individual cells was measured on a FACscan flow cytometer (Gorczyca, 1993). Negative control (fixed and permeabilized cells incubated with 50 μl label solution per well without terminal transferase, instead of TUNEL reaction mixture) and positive control (fixed and permeabilized cells incubated with DNase I (100 μg/ml) that induces DNA strand breaks) were included in each experimental set-up.
Flow cytometric detection of apoptosis combined with DNA staining can identify apoptotic cells and simultaneously evaluate their position in the cell cycle. This technique was used to provide infomation about the possible cell cycle specific initiation of apoptosis by the tested compounds. If more than 2% of apoptotic cells were detected by the TUNEL method and the absolute number of acquired apoptotic events exceeded 2000, DNA content was simultaneously measured. Within the apoptotic population, analysis and calculation of the different cell cycle phases was carried out by an iterative curve fitting procedure (ModFit LT cell cycle analysis sofware from Verity software house, INC).
Viable, apoptotic, necrotic (=primary necrosis, not following apoptosis) and secondarily necrotic cells (=late apoptotis, evolving to necrosis) were scored differentially after 6, 12, 24, 48 and 72 hours of exposure to novel compounds. For the three products a different apoptosis-inducing pattern could be observed. Apoptosis induction occurs fast after incubation with P23 and P28 but slower after incubation with P27.
Flow cytometric detection of apoptosis and cell cycle analysis: The induction of apoptotic death of KG1 cells by the novel compounds was confirmed using the TUNEL reaction technique (FIG. 5). […] Incubation of KG1 cell line with P27 results in detectable apoptosis after 24 hours. Percentage of apoptotic cells in G0-G1 increases with time, while the number of apoptotic cells in S+G2/M phases decreases. […] After 6 and 12 hours of incubation the apoptotic population seems mainly to evolve from S phase.

CDC2 = biological target: T1, CDC2 (Homo sapiens, UniProt P06493); assay: p34cdc2 (CDC2) kinase inhibition assay, histone H1 substrate; type: biochemical; settings: Table 5, CDC2 activity in cell free system
T1 construct: made in house; host or cells: Sf9 insect cells, baculovirus co-infection
T1 sequence (P06493 whole entry, species assumed): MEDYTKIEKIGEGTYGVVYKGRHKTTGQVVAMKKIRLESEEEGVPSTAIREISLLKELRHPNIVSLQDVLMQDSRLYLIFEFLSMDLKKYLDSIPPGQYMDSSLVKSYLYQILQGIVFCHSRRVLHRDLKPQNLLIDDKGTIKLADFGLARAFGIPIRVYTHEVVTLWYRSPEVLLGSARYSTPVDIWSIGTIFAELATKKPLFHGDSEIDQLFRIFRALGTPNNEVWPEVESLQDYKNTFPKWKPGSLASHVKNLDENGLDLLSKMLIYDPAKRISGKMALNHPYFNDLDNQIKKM
T1 sequence (P14635 whole entry partner, species assumed): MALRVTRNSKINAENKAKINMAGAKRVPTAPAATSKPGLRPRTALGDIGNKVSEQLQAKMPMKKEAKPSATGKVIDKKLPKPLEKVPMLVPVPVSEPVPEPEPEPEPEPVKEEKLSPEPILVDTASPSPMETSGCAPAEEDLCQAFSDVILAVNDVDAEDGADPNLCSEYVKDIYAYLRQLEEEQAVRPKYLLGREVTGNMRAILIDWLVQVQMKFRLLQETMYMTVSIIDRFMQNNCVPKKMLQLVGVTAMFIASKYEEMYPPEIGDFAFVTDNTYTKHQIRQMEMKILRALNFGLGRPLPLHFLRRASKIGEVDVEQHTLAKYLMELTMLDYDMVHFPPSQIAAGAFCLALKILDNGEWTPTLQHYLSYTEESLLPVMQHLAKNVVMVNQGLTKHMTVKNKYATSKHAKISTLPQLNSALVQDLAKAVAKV
Method: Cyclin-dependent kinases (p34^cdc2, p33^cdk2, p33^cdk4 and cyclins (cyclin B, E and DI) are produced in Sf9 insect cells coinfected with appropriate baculoviral constructs. The cells are harvested 68-72 hrs post infection in lysis buffer for 30 min on ice and the soluble fraction is recovered by centrifugation at 14.000 g for 10 min. The protein extract is stored at −80° C.
To carry out experiments on kinetics under linear conditions, the final point test system for kinase activity measurement is used. The kinase is added to the reaction mixture in such a way that linear activity is obtained with respect to the concentration of enzyme and with respect to time.
Inhibition of p33^cdk4 kinase is determined with Rb-GST (0.2 mg/ml) as the substrate. Kinase activity is determined at 30° C. in kinase buffer.
Tested compounds are usually dissolved to 100 mM solutions in DMSO, the final concentration of DMSO in reaction mixture never exceeds 1%. The controls contain suitable dilutions of DMSO. After 10 min, the addition of 3×SDS sample buffer stops the incubations. […] The measurement of kinase activity is done using digital image analysis. The kinase activity is expressed as a percentage of maximum activity, the apparent inhibition constants are determined by graphic analysis. Kinase buffer: 50 mM Hepes pH 7.4, 10 mM MgCl21 5 mM EGTA, 10 mM 2-glycerolphosphate,

[5] = system: CD34+ hematopoietic progenitors (HPC) from adult bone marrow; assay: myeloid colony-forming unit (CFU) assay; type: cell-based, human; settings: for IC50: 14 days, methylcellulose, total colony output

Compound	IC50 (MPF activity)	IC50 (DNA synthesis)	Colony output vs. control cultures without novel compound (KG1)	IC50 ([2]; Homo sapiens, MOLT-3)	IC50 ([3]; Homo sapiens, KG-1, 96 h)	IC50 ([4]; Homo sapiens, 336 h)	IC50 (CDC2)	IC50 ([5]; Homo sapiens, 336 h)	output of the different types of myeloid colonies (CFU-E, CFU-G and CFU-M) ([5]; scored differentially)	also measured
CC(C)n1cnc2c(NCc3ccc(O)c(O)c3)nc(NCCCO)nc21	3.6 µM	4.2 µM	–	–	–	–	–	–	–	–
CC[C@H](CCO)Nc1nc(NCc2ccc(O)c(O)c2)c2ncn(C(C)C)c2n1	2.8 µM	3.5 µM	–	–	–	–	–	–	–	–
CC(C)n1cnc2c(NC(CO)c3ccccc3)nc(NCCCO)nc21 (racemic)	1.5 µM	1.4 µM	–	–	–	–	–	–	–	–
CC(C)n1cnc2c(NC(CO)c3ccccc3)nc(NCCCO)nc21 (racemic) [P27, 2-(3-hydroxypropylamino)-6-[(R,S)-(1-phenyl-2-hydroxyethyl)amino]-9-isopropylpurine]	–	–	8%	14 ± 1.5 µM	7 ± 2 µM	> 25 µM	> 100 µM	> 50 µM	significantly lower colony output	CC50 ([1]; Homo sapiens, Lymphocyte, read-out: Lymphocytes IC50): 8 ± 0.5 µM; cell number after 6 hours of exposure, wash and 7 days in drug-free medium ([3]; KG1, compared to control without novel compounds): (some) recovery of cell number; time of incubation after which apoptosis was detected (TUNEL) (KG1 cells; KG1): 24 h; speed of apoptosis induction (microscopic examination) (KG1 cells; KG1, 6-72 hours of exposure, FIG. 4): slower; apoptotic cells in G0-G1 phase versus control cells (KG1 cells; KG1, TUNEL with EB, FIG. 6): significant after 72 hours; CFU-M colony output ([5]; scored differentially): not significantly decreased
CC(C)=CCNc1nc(NCCO)nc2c1ncn2C [P3, 2-(2-hydroxyethylamino)-6-(2-isopentenylamino)-9-methylpurine]	–	–	47%	≥ 51 µM	≥ 51 µM	> 25 µM	–	> 50 µM	no significant difference	–
CSc1nc(NC(C)c2ccc(O)c(O)c2)c2ncn(C(C)C)c2n1 (stereo not shown) [P16]	–	–	16%	–	–	–	> 200 µM	–	no significant difference	IC50 [1]: 26.5 ± 2.8 µM; IC50 [2]: 37 ± 7.9 µM; IC50 ([3]; 96 hours of culture): 23 ± 1.2 µM; activity on pre-CFU compared with CFU [4]: more active on pre-CFU than on CFU; IC50 [4]: 16 µM; IC50 [5]: > 50 µM
